System: CN0375-F725-PDC KRAS spheroid viability
Assay: Anticancer human tumor CN0375-F725-PDC patient-derived colon carcinoma cell line growth inhibition [KRAS2]
Details: spheroids with HUVEC and MSC; for IC50: curve of first compound; for viability, T/C: stronger effect = lower value
Outline: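 Combination screen of spheroid viability in tumor-cell co-cultures with endothelial (HUVEC) and mesenchymal stem cell stroma. Each agent was tested in half-log dilutions, topping at clinical Cmax or at 10 microM without a known Cmax.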

[1] = second compound 0.1 µM, first compound 0.0316 µM
[2] = second compound 0.1 µM, first compound 0.1 µM
[3] = second compound 0.316 µM, first compound 0.0316 µM
[4] = second compound 0.316 µM, first compound 0.1 µM
[5] = second compound 1 µM, first compound 0.0316 µM
[6] = second compound 1 µM, first compound 0.1 µM
[7] = second compound 3.16 µM, first compound 0.0316 µM
[8] = second compound 3.16 µM, first compound 0.1 µM
[9] = second compound 10 µM, first compound 0.0316 µM
[10] = second compound 10 µM, first compound 0.1 µM
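Further: spheroids exposed to agents for 7 days.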

Cn1ncnc1[C@H]1c2n[nH]c(=O)c3cc(F)cc(c23)N[C@@H]1c1ccc(F)cc1 + C=CC(=O)N1CCN(c2nc(=O)n(-c3c(C)ccnc3C(C)C)c3nc(-c4c(O)cccc4F)c(F)cc23)C(C)C1
IC50 (second compound 0.1 µM): > 0.1 µM
IC50 (second compound 0.316 µM): > 0.1 µM
IC50 (second compound 1 µM): > 0.1 µM
IC50 (second compound 3.16 µM): > 0.1 µM
IC50 (second compound 10 µM): > 0.1 µM
viability, T/C (second compound 0.1 µM, first compound 0.000316 µM): 110%
viability, T/C (second compound 0.1 µM, first compound 0.001 µM): 103%
viability, T/C (second compound 0.1 µM, first compound 0.00316 µM): 100%
viability, T/C (second compound 0.1 µM, first compound 0.01 µM): 103%
viability, T/C [1]: 102%
viability, T/C [2]: 98.2%
viability, T/C (second compound 0.316 µM, first compound 0.000316 µM): 107%
viability, T/C (second compound 0.316 µM, first compound 0.001 µM): 114%
viability, T/C (second compound 0.316 µM, first compound 0.00316 µM): 104%
viability, T/C (second compound 0.316 µM, first compound 0.01 µM): 96.3%
viability, T/C [3]: 99.3%
viability, T/C [4]: 99.9%
viability, T/C (second compound 1 µM, first compound 0.000316 µM): 107%
viability, T/C (second compound 1 µM, first compound 0.001 µM): 104%
viability, T/C (second compound 1 µM, first compound 0.00316 µM): 109%
viability, T/C (second compound 1 µM, first compound 0.01 µM): 104%
viability, T/C [5]: 104%
viability, T/C [6]: 99.5%
viability, T/C (second compound 3.16 µM, first compound 0.000316 µM): 114%
viability, T/C (second compound 3.16 µM, first compound 0.001 µM): 110%
viability, T/C (second compound 3.16 µM, first compound 0.00316 µM): 108%
viability, T/C (second compound 3.16 µM, first compound 0.01 µM): 104%
viability, T/C [7]: 108%
viability, T/C [8]: 99.7%
viability, T/C (second compound 10 µM, first compound 0.000316 µM): 112%
viability, T/C (second compound 10 µM, first compound 0.001 µM): 106%
viability, T/C (second compound 10 µM, first compound 0.00316 µM): 99.3%
viability, T/C (second compound 10 µM, first compound 0.01 µM): 96.8%
viability, T/C [9]: 95.7%
viability, T/C [10]: 93.5%

CC1OCC2(CCN(c3cnc(Sc4ccnc(N)c4Cl)c(N)n3)CC2)C1N (stereo not given) + COc1cc2nc(C)nc(NC(C)c3cc(N)cc(C(F)(F)F)c3)c2cc1OC1CCOC1
IC50 (second compound 0.1 µM): > 10 µM
IC50 (second compound 0.316 µM): > 10 µM
IC50 (second compound 1 µM): > 10 µM
IC50 (second compound 3.16 µM): 4.64 µM
IC50 (second compound 10 µM): < 0.0316 µM
viability, T/C [1]: 95.5%
viability, T/C [2]: 83.2%
viability, T/C (second compound 0.1 µM, first compound 0.316 µM): 80.6%
viability, T/C (second compound 0.1 µM, first compound 1 µM): 81.2%
viability, T/C (second compound 0.1 µM, first compound 3.16 µM): 76%
viability, T/C (second compound 0.1 µM, first compound 10 µM): 70.7%
viability, T/C [3]: 90.5%
viability, T/C [4]: 91.7%
viability, T/C (second compound 0.316 µM, first compound 0.316 µM): 73.3%
viability, T/C (second compound 0.316 µM, first compound 1 µM): 77.8%
viability, T/C (second compound 0.316 µM, first compound 3.16 µM): 71%
viability, T/C (second compound 0.316 µM, first compound 10 µM): 60.6%
viability, T/C [5]: 91.3%
viability, T/C [6]: 87.2%
viability, T/C (second compound 1 µM, first compound 0.316 µM): 81.3%
viability, T/C (second compound 1 µM, first compound 1 µM): 73.9%
viability, T/C (second compound 1 µM, first compound 3.16 µM): 68.7%
viability, T/C (second compound 1 µM, first compound 10 µM): 60.4%
viability, T/C [7]: 80.9%
viability, T/C [8]: 73.8%
viability, T/C (second compound 3.16 µM, first compound 0.316 µM): 69%
viability, T/C (second compound 3.16 µM, first compound 1 µM): 57.2%
viability, T/C (second compound 3.16 µM, first compound 3.16 µM): 61.3%
viability, T/C (second compound 3.16 µM, first compound 10 µM): 40.1%
viability, T/C [9]: 13.6%
viability, T/C [10]: 12.1%
viability, T/C (second compound 10 µM, first compound 0.316 µM): 12.8%
viability, T/C (second compound 10 µM, first compound 1 µM): 8.09%
viability, T/C (second compound 10 µM, first compound 3.16 µM): 8.5%
viability, T/C (second compound 10 µM, first compound 10 µM): 5.15%

Reference: PubChem BioAssay AID1963860 (Molecular Pharmacology Branch, DTP, NCI, 2024)
